Measured values taken from patent US4962200A, “Nitrogen-containing compound” (Mitsui Petrochemical Industries, Ltd., priority 1987, dated 1990).

test system: formation of peroxide lipids (rat brain homogenate); experiment: activity of inhibiting formation of peroxide lipids (TBA assay, rat brain homogenate supernatant); assay type: biochemical, rat (Wistar); conditions: final concentration 10^-4 M, pH 7.4, 37° C., 30 minutes, malondialdehyde by TBA assay vs control, 100 µM
Description: With respect to the compounds of the present invention, the activity of inhibiting formation of peroxide lipids was tested according to the following procedures.
Male rats of the Wistar system having a body weight of 200 to 250 g were used. The rat brain was extracted by beheading and homogenized by 50 mM phosphate buffer solution (pH 7.4)(PBS), and centrifugal separation was conducted for 15 minutes under 1000 G. The supernatant was frozen at -30° C. and stored, and when the test was carried out, the frozen supernatant was thawed in running water and diluted with PBS so that the volume was trebled, whereby a living body sample was prepared.
Two samples were formed by adding 10 μl of a solution of the test compound (the final concentration was 10^-4 M) to 990 μl of the living body sample. One sample was incubated at 37° C. for 30 minutes and 0.2 ml of a 35% solution of perchloric acid was added to stop the reaction. The other sample was not incubated but the solution of perchloric acid was immediately added to stop the reaction. Both the reaction liquids were subjected to centrifugal separation at 3000 rpm for 15 minutes. With respect to each sample, by using 0.5 ml of the supernatant, the amount of the peroxide lipid was determined according to the TBA assay [Okawa et al., Anal. Biochem., 95. 351 (1979)], and the difference between both the measured values was determined as the amount of malondialdehyde (MDS)(the unit: nmole/mg protein). The peroxide lipid inhibition ratio was calculated from this MDA amount (A) and the control value (B) (the MDA amount obtained when the test compound was not added) according to the following formula: [formula]

| Structure (SMILES) | Inhibition Ratio (%) (peroxide lipid inhibition ratio) |
| --- | --- |
| Cn1cncc1CN1CCCc2ccccc21 [Compound 1] | 99.0 |
| Cc1nc(CN2CCCc3ccccc32)cs1 [Compound 3] | 88.7 |
| Cc1nc(CN2CCc3ccccc32)cs1 [Compound 4] | 84.6 |
| c1csc(CN2CCCc3ccccc32)c1 [Compound 5] | 93.6 |
| c1csc(CN2CCc3ccccc32)c1 [Compound 6] | 95.4 |
| CN(C)C(=O)n1cnc(CN2c3ccccc3CCc3ccccc32)c1 [Compound 9, 1-(N,N-dimethylcarbamoyl)-4-(10,11-dihydro-5H-dibenzo[b,f]azepin-5-ylmethyl)imidazole] | 94.0 |
| c1coc(CN2CCc3ccccc32)c1 [Compound 10] | 87.0 |
| c1coc(CN2CCOc3ccccc32)c1 [Compound 11, 4-(2-furyl)methyl-3,4-dihydro-2H-benzooxazine] | 56.0 |
| Cc1ncoc1CN1CCCc2ccccc21 [Compound 12] | 97.8 |
| c1coc(CCCN2CCCc3ccccc32)c1 [Compound 13] | 90.5 |
| c1ccc(CN2CCCc3ccccc32)nc1 [Compound 14] | 100.0 |
| CCOC(=O)c1cnc(C)nc1CN1CCCc2ccccc21 [Compound 15] | 100.0 |
| CCOC(=O)c1cnc(-c2ccccc2)nc1CN1CCCc2ccccc21 [Compound 16] | 100.0 |
| CCOC(=O)c1cncnc1CN1CCCc2ccccc21 [Compound 17] | 100.0 |
| O=C1C=C(OCCN2CCCc3ccccc32)C(=O)c2ccccc21 [Compound 18] | 97.9 |
| c1coc(CN2CCSc3ccccc32)c1 [Compound 19, 4-(2-furyl)methyl-3,4-dihydro-2H-1,4-benzothiazine] | 80.9 |
| Cc1ccc2c(c1)CCCN2Cc1ccco1 [Compound 20] | 85.1 |
| Clc1ccc2c(c1)CCCN2Cc1ccco1 [Compound 21] | 87.2 |
